Source: patent US20160090556A1, “PRODUCTS COMPRISING MALODOR REDUCTION MATERIALS” (The Procter & Gamble Company, priority 2014, published 2016)

assay: Liquid dish neat product liquid-air partition coefficient; assay type: physicochemical; conditions: not given

Row | Compound | Log of liquid dish neat product liquid-air partition coefficient (Comment Code K/L)
1 | C=C(C)C1CC=C(C)C(OC(C)=O)C1 (stereo not shown) [Material 577] | K (Log of liquid dish neat product liquid-air partition coefficient greater than or equal to −7)
2 | CC/C(=C/CC1CC=C(C)C1(C)C)CO (stereo not shown) [Material 1024] | K (Log of liquid dish neat product liquid-air partition coefficient greater than or equal to −7)
3 | CC(C)(O)CCc1ccccc1 [Material 639] | K (Log of liquid dish neat product liquid-air partition coefficient greater than or equal to −7)
4 | CC(=O)C=CC1C(C)=CCC(C)C1(C)C (stereo not shown) [Material 704] | K (Log of liquid dish neat product liquid-air partition coefficient greater than or equal to −7)
5 | CC1=CCC(O)(C(C)C)CC1 (stereo not shown) [Material 800] | K (Log of liquid dish neat product liquid-air partition coefficient greater than or equal to −7)
6 | CC1=C2CCC(C)C2CC(C(C)(C)O)CC1 (stereo not shown) [Material 920] | K (Log of liquid dish neat product liquid-air partition coefficient greater than or equal to −7)
7 | CC1CC(C)(C)OC(Cc2ccccc2)O1 (stereo not shown) [Material 1003] | K (Log of liquid dish neat product liquid-air partition coefficient greater than or equal to −7)

same assay, conditions: class code letter within Comment Code

Row | Compound | Log of liquid dish neat product liquid-air partition coefficient (Comment Code K/L)
8 | C=C1C2CCC(C)(C)C1CCC(OC)C2 (stereo not shown) [Material 7] | K (Log of liquid dish neat product liquid-air partition coefficient greater than or equal to −7)
9 | CCCCCCCCCC(=O)OCC [Material 397] | K (Log of liquid dish neat product liquid-air partition coefficient greater than or equal to −7)
10 | CC1=CCC(C)C(C)C12C=CC(C)O2 (stereo not shown) [Material 192] | K (Log of liquid dish neat product liquid-air partition coefficient greater than or equal to −7)
11 | CCCCCCCCCCCCCC#N [Material 38] | K (Log of liquid dish neat product liquid-air partition coefficient greater than or equal to −7)
12 | C=CC1(C)CCC(C(C)(C)O)O1 (stereo not shown) [Material 155] | K (Log of liquid dish neat product liquid-air partition coefficient greater than or equal to −7)
13 | CC1/C=C/CCCCCCCCCCC(=O)C1 (stereo not shown) [Material 80] | K (Log of liquid dish neat product liquid-air partition coefficient greater than or equal to −7)
14 | CCOC(C)OC1CCCCCCCCCCC1 (stereo not shown) [Material 363] | K (Log of liquid dish neat product liquid-air partition coefficient greater than or equal to −7)
15 | CCCCCCCC(=O)OCCCCCC [Material 263] | K (Log of liquid dish neat product liquid-air partition coefficient greater than or equal to −7)
16 | CCC(=O)OC1CC2CCC1(C)C2(C)C (stereo not shown) [Material 228] | K (Log of liquid dish neat product liquid-air partition coefficient greater than or equal to −7)
17 | O=C1CCCCCCCCCCCCCCO1 [Material 370] | K (Log of liquid dish neat product liquid-air partition coefficient greater than or equal to −7)
18 | CCCC(=O)OC(C)(C)Cc1ccccc1 [Material 432] | K (Log of liquid dish neat product liquid-air partition coefficient greater than or equal to −7)
19 | CCCCCCCCCCCCCC(=O)OC [Material 104] | K (Log of liquid dish neat product liquid-air partition coefficient greater than or equal to −7)
20 | CC(C=O)Cc1cccc(C(C)(C)C)c1 (stereo not shown) [Material 134] | K (Log of liquid dish neat product liquid-air partition coefficient greater than or equal to −7)
21 | CC(C)=C1CCC(C)(O)CC1 (stereo not shown) [Material 318] | K (Log of liquid dish neat product liquid-air partition coefficient greater than or equal to −7)
22 | C=CCCCCCCCCC#N [Material 352] | K (Log of liquid dish neat product liquid-air partition coefficient greater than or equal to −7)
23 | CCCCCCCCOC(=O)c1ccco1 [Material 28] | K (Log of liquid dish neat product liquid-air partition coefficient greater than or equal to −7)
24 | CC1COCc2cc3c(cc21)C(C)(C)C(C)C3(C)C (stereo not shown) [Material 335] | K (Log of liquid dish neat product liquid-air partition coefficient greater than or equal to −7)
25 | C=C1[C@H]2CC[C@H](CO)[C@@]23CC[C@H](C3)C1(C)C [Material 183] | K (Log of liquid dish neat product liquid-air partition coefficient greater than or equal to −7)
26 | OC1CCC2CCCCC2C1 (stereo not shown) [Material 474] | K (Log of liquid dish neat product liquid-air partition coefficient greater than or equal to −7)
27 | CCC(=O)OC1CC2C3C=CCC3C1C2(C)C (stereo not shown) [Material 343] | K (Log of liquid dish neat product liquid-air partition coefficient greater than or equal to −7)
28 | C=CCCCCCCC/C=C/CC#N [Material 137] | K (Log of liquid dish neat product liquid-air partition coefficient greater than or equal to −7)
29 | CC1(CO)CC1CC1CC2CC2(C)C1(C)C (stereo not shown) [Material 185] | K (Log of liquid dish neat product liquid-air partition coefficient greater than or equal to −7)

same assay, conditions: code letters K, L

Row | Compound | Comment Code: Log of liquid dish neat product liquid-air partition coefficient
30 | C=C1C2CCC(C)(C)C1CCC(OC)C2 (stereo not shown) [Material 7] | K (Log of liquid dish neat product liquid-air partition coefficient greater than or equal to −7)
31 | CC(C)=CCC/C(C)=C\COC=O [Material 59] | K (Log of liquid dish neat product liquid-air partition coefficient greater than or equal to −7)
32 | O=C(O)CCc1ccccc1 [Material 255] | K (Log of liquid dish neat product liquid-air partition coefficient greater than or equal to −7)
33 | C=C(C=O)C(C)CCC=C(C)C (stereo not shown) [Material 819] | K (Log of liquid dish neat product liquid-air partition coefficient greater than or equal to −7)
34 | CC=Cc1ccc(OC(C)=O)c(OC)c1 [Material 213] | K (Log of liquid dish neat product liquid-air partition coefficient greater than or equal to −7)
35 | CC/C(=C/CC1CC=C(C)C1(C)C)CO (stereo not shown) [Material 1024] | K (Log of liquid dish neat product liquid-air partition coefficient greater than or equal to −7)
36 | CC1COCc2cc3c(cc21)C(C)(C)C(C)C3(C)C (stereo not shown) [Material 335] | K (Log of liquid dish neat product liquid-air partition coefficient greater than or equal to −7)
37 | C=C1[C@H]2CC[C@H](CO)[C@@]23CC[C@H](C3)C1(C)C [Material 183] | K (Log of liquid dish neat product liquid-air partition coefficient greater than or equal to −7)
38 | CCC(=O)OC1CC2C3C=CCC3C1C2(C)C (stereo not shown) [Material 343] | K (Log of liquid dish neat product liquid-air partition coefficient greater than or equal to −7)
39 | CCOCCOCCO [Material 579] | K (Log of liquid dish neat product liquid-air partition coefficient greater than or equal to −7)
40 | CC1(CO)CC1CC1CC2CC2(C)C1(C)C (stereo not shown) [Material 185] | K (Log of liquid dish neat product liquid-air partition coefficient greater than or equal to −7)
